Reference: PubChem BioAssay AID1259407 (Chemical Carcinogenesis Research Information System (CCRIS), 2018)
Active and inactive are the calls of the source. How the calls were made is not given here.

Test system: CCRIS mutagenicity, Ames/micronucleus/aberration tests
Test: CCRIS mutagenicity studies
[1] = Test System: AMES SALMONELLA TYPHIMURIUM, Strain/Indicator: TA98, Metabolic Activation: HAMSTER, LIVER, S-9, AROCLOR 1254 (10%), Method: PREINCUBATION
[2] = Test System: AMES SALMONELLA TYPHIMURIUM, Strain/Indicator: TA98, Metabolic Activation: NONE, Method: PREINCUBATION
[3] = Test System: AMES SALMONELLA TYPHIMURIUM, Strain/Indicator: TA98, Metabolic Activation: RAT, LIVER, S-9, AROCLOR 1254 (10%), Method: PREINCUBATION
[4] = Test System: AMES SALMONELLA TYPHIMURIUM, Strain/Indicator: TA100, Metabolic Activation: HAMSTER, LIVER, S-9, AROCLOR 1254 (10%), Method: PREINCUBATION
[5] = Test System: AMES SALMONELLA TYPHIMURIUM, Strain/Indicator: TA100, Metabolic Activation: NONE, Method: PREINCUBATION
[6] = Test System: AMES SALMONELLA TYPHIMURIUM, Strain/Indicator: TA100, Metabolic Activation: RAT, LIVER, S-9, AROCLOR 1254 (10%), Method: PREINCUBATION
[7] = Test System: AMES SALMONELLA TYPHIMURIUM, Strain/Indicator: TA1535, Metabolic Activation: HAMSTER, LIVER, S-9, AROCLOR 1254 (10%), Method: PREINCUBATION
[8] = Test System: AMES SALMONELLA TYPHIMURIUM, Strain/Indicator: TA1535, Metabolic Activation: NONE, Method: PREINCUBATION
[9] = Test System: AMES SALMONELLA TYPHIMURIUM, Strain/Indicator: TA1535, Metabolic Activation: RAT, LIVER, S-9, AROCLOR 1254 (10%), Method: PREINCUBATION
[10] = Test System: AMES SALMONELLA TYPHIMURIUM, Strain/Indicator: TA1537, Metabolic Activation: HAMSTER, LIVER, S-9, AROCLOR 1254 (10%), Method: PREINCUBATION
[11] = Test System: AMES SALMONELLA TYPHIMURIUM, Strain/Indicator: TA1537, Metabolic Activation: NONE, Method: PREINCUBATION
[12] = Test System: AMES SALMONELLA TYPHIMURIUM, Strain/Indicator: TA1537, Metabolic Activation: RAT, LIVER, S-9, AROCLOR 1254 (10%), Method: PREINCUBATION
[13] = Test System: AMES SALMONELLA TYPHIMURIUM, Strain/Indicator: TA97, Metabolic Activation: NONE, Method: PREINCUBATION

Measured: mutagenic call

O=[N+]([O-])c1ccccc1CCO
inactive: [1] inactive; negative | Test System: AMES SALMONELLA TYPHIMURIUM, Strain/Indicator: TA98, Metabolic Activation: HAMSTER, LIVER, S-9, AROCLOR 1254 (30%), Method: PREINCUBATION inactive; negative | [2] inactive; negative | [3] inactive; negative | Test System: AMES SALMONELLA TYPHIMURIUM, Strain/Indicator: TA98, Metabolic Activation: RAT, LIVER, S-9, AROCLOR 1254 (30%), Method: PREINCUBATION inactive; negative | [4] inactive; negative | [5] inactive; negative | Test System: AMES SALMONELLA TYPHIMURIUM, Strain/Indicator: TA100, Metabolic Activation: RAT, LIVER, S-9, AROCLOR 1254 (5%), Method: PREINCUBATION inactive; negative | [6] inactive; negative | Test System: AMES SALMONELLA TYPHIMURIUM, Strain/Indicator: TA100, Metabolic Activation: RAT, LIVER, S-9, AROCLOR 1254 (30%), Method: PREINCUBATION inactive; negative | [7] inactive; negative | [8] inactive; negative | [9] inactive; negative | [10] inactive; negative | [11] inactive; negative | [12] inactive; negative
active: Test System: AMES SALMONELLA TYPHIMURIUM, Strain/Indicator: TA100, Metabolic Activation: HAMSTER, LIVER, S-9, AROCLOR 1254 (30%), Method: PREINCUBATION active; positive

Nc1ccc(-c2cc(Cl)c(N)cc2[N+](=O)[O-])cc1Cl
inactive: Test System: Ames Salmonella typhimurium, Strain/Indicator: TA100, Metabolic Activation: None, Method: Preincubation inactive; negative | Test System: Ames Salmonella typhimurium, Strain/Indicator: YG1029, Metabolic Activation: None, Method: Preincubation inactive; negative
active: Test System: Ames Salmonella typhimurium, Strain/Indicator: TA98, Metabolic Activation: None, Method: Preincubation active; positive. weak response. | Test System: Ames Salmonella typhimurium, Strain/Indicator: TA98, Metabolic Activation: Rat, Liver, S-9, Phenobarbital and 5,6-benzoflavone, Method: Preincubation active; positive | Test System: Ames Salmonella typhimurium, Strain/Indicator: TA100, Metabolic Activation: Rat, Liver, S-9, Phenobarbital and 5,6-benzoflavone, Method: Preincubation active; positive. weak response. | Test System: Ames Salmonella typhimurium, Strain/Indicator: YG1024, Metabolic Activation: None, Method: Preincubation active; positive | Test System: Ames Salmonella typhimurium, Strain/Indicator: YG1024, Metabolic Activation: Rat, Liver, S-9, Phenobarbital and 5,6-benzoflavone, Method: Preincubation active; positive | Test System: Ames Salmonella typhimurium, Strain/Indicator: YG1029, Metabolic Activation: Rat, Liver, S-9, Phenobarbital and 5,6-benzoflavone, Method: Preincubation active; positive. weak response.

Nc1cccc(S(=O)(=O)O)c1
inactive: Test System: AMES SALMONELLA TYPHIMURIUM, Strain/Indicator: TA97, Metabolic Activation: HAMSTER, LIVER, S-9, AROCLOR 1254 (10 OR 30%), Method: PREINCUBATION inactive; negative | [13] inactive; negative | Test System: AMES SALMONELLA TYPHIMURIUM, Strain/Indicator: TA97, Metabolic Activation: RAT, LIVER, S-9, AROCLOR 1254 (10 OR 30%), Method: PREINCUBATION inactive; negative | Test System: AMES SALMONELLA TYPHIMURIUM, Strain/Indicator: TA98, Metabolic Activation: HAMSTER, LIVER, S-9, AROCLOR 1254 (10 OR 30%), Method: PREINCUBATION inactive; negative | [2] inactive; negative | Test System: AMES SALMONELLA TYPHIMURIUM, Strain/Indicator: TA98, Metabolic Activation: RAT, LIVER, S-9, AROCLOR 1254 (10 OR 30%), Method: PREINCUBATION inactive; negative | Test System: AMES SALMONELLA TYPHIMURIUM, Strain/Indicator: TA98, Metabolic Activation: S-9, Method: PREINCUBATION inactive; negative | Test System: AMES SALMONELLA TYPHIMURIUM, Strain/Indicator: TA100, Metabolic Activation: HAMSTER, LIVER, S-9, AROCLOR 1254 (10 OR 30%), Method: PREINCUBATION inactive; negative | [5] inactive; negative | Test System: AMES SALMONELLA TYPHIMURIUM, Strain/Indicator: TA100, Metabolic Activation: RAT, LIVER, S-9, AROCLOR 1254 (10 OR 30%), Method: PREINCUBATION inactive; negative | Test System: AMES SALMONELLA TYPHIMURIUM, Strain/Indicator: TA100, Metabolic Activation: S-9, Method: PREINCUBATION inactive; negative | Test System: AMES SALMONELLA TYPHIMURIUM, Strain/Indicator: TA1535, Metabolic Activation: HAMSTER, LIVER, S-9, AROCLOR 1254 (10 OR 30%), Method: PREINCUBATION inactive; negative | [8] inactive; negative | Test System: AMES SALMONELLA TYPHIMURIUM, Strain/Indicator: TA1535, Metabolic Activation: RAT, LIVER, S-9, AROCLOR 1254 (10 OR 30%), Method: PREINCUBATION inactive; negative | Test System: UDS RODENT HEPATOCYTES, Strain/Indicator: THY INCORP (NON-S-PHASE), Metabolic Activation: NONE, Method: AUTORADIOGRAPHY inactive; negative

O=C(OC1CCCCC1)c1ccccc1C(=O)OC1CCCCC1
inactive: [1] inactive; negative | [2] inactive; negative | [3] inactive; negative | [4] inactive; negative | [5] inactive; negative | [6] inactive; negative | [7] inactive; negative | [8] inactive; negative | [9] inactive; negative | [10] inactive; negative | [11] inactive; negative | [12] inactive; negative

CC(=O)OCc1ccc(N=Nc2ccccc2COC(C)=O)cc1
active: [5] active; positive
inactive: Test System: AMES SALMONELLA TYPHIMURIUM, Strain/Indicator: TA100, Metabolic Activation: RAT, LIVER, S-9, POLYCHLORINATED BIPHENYLS, Method: PREINCUBATION inactive; negative

Nn1nnc2c([nH]c3ccccc32)c1=O
active: [13] active; positive | Test System: AMES SALMONELLA TYPHIMURIUM, Strain/Indicator: TA97, Metabolic Activation: S-9 (10%), Method: PREINCUBATION active; positive | [2] active; positive | Test System: AMES SALMONELLA TYPHIMURIUM, Strain/Indicator: TA98, Metabolic Activation: S-9 (10%), Method: PREINCUBATION active; positive | [5] active; positive | Test System: AMES SALMONELLA TYPHIMURIUM, Strain/Indicator: TA100, Metabolic Activation: S-9 (10%), Method: PREINCUBATION active; positive | Test System: AMES SALMONELLA TYPHIMURIUM, Strain/Indicator: TA102, Metabolic Activation: NONE, Method: PREINCUBATION active; positive | Test System: AMES SALMONELLA TYPHIMURIUM, Strain/Indicator: TA102, Metabolic Activation: S-9 (10%), Method: PREINCUBATION active; positive

CCC(C)Cl (stereo unspecified)
inactive: Test System: Mouse lymphoma, Strain/Indicator: L5178Y (tk+/tk-), Metabolic Activation: None, Method: Suspension/plate inactive; negative | Test System: Mouse lymphoma, Strain/Indicator: L5178Y (tk+/tk-), Metabolic Activation: Rat, Liver, S-9, Aroclor 1254, Method: Suspension/plate inactive; negative

COc1ccc2c(ccc3oc([N+](=O)[O-])cc32)c1
active: Test System: AMES SALMONELLA TYPHIMURIUM, Strain/Indicator: TA100(NR), Metabolic Activation: NONE, Method: STANDARD PLATE active; positive | Test System: AMES SALMONELLA TYPHIMURIUM, Strain/Indicator: TA100, Metabolic Activation: NONE, Method: STANDARD PLATE active; positive
